This data set in a line: Identification of Columbia Blue in release media by LC/MS (stability). It is filed as physicochemical. Particulars: water at room temperature and PBS pH 7.4 at 37° C., 16 week release experiments. The method, then: The concentration of Columbia Blue was determined using Liquid Chromatography/Mass Spectroscopy (LC/MS) (Agilent Technologies 6130 Quadrupole LC/MS), and the Columbia Blue was identified using mass spectroscopy. The column used was a Restek Ultra C18, 5 μm, 250×4.6 mm. The mobile phase consisted of 60% acetonitrile and 40% water at a flow rate of 1.0 ml/min. The concentration was determined using UV detection at a wavelength of 374 nm.
A model pesticide, Columbia Blue, was chosen following Briggs's “rule of 3” (Briggs, G. G., Uptake of Agrochemicals & Pharmaceuticals ‘Predicting uptake & movement of agrochemicals from physical properties’, in SCI Meeting. 1997) and Clarke-Delaney's “guide of 2” (Clarke, E. D. and J. S. Delaney, Designing Drugs and Crop Protectants: Processes, Problems and Solutions, ed. D. L. M. Ford, J. Dearden, H. V. de Waterbeemd. 2003: Blackwell Publishing, Malden). During the release measurements, Columbia Blue was identified by the LC/MS. The retention time of Columbia Blue of HPLC spectrum remained unchanged at 9.8 minutes.

Regarding Columbia Blue, the “degradation of Columbia Blue in the release media” value is on record as “did not degrade”.

(Values after patent publication US9861096B2, “Biodegradable chemical delivery system” (Cornell University, priority 2008, dated 2018).)
